Read-outs that look alike come from different tables or passages of the source.
System: ADP-induced aggregation of washed platelets
Assay: Inhibition of ADP-induced aggregation of washed platelets
Assay type: cell-based
Conditions: human washed platelets, light transmission aggregometry, 2 min pre-incubation with inhibitor before ADP, read-out: IC50 as inhibitors of ADP-induced aggregation of washed platelets
Description: Isolation of platelets: Human blood is obtained from informed healthy adult volunteers. Blood is collected into one-sixth volume of acid/citrate/dextrose (ACD) buffer (85 mM sodium citrate, 65 mM citric acid, and 110 mM glucose). Collected blood is placed in a water bath at 37° C. for 30 minutes. Blood is then centrifuged at 275×g for 16 minutes at room temperature and the platelet-rich plasma is removed and centrifuged at 2200×g for 13 minutes at room temperature. […]
Aggregation Studies: ADP-induced platelet aggregation is determined by measuring the transmission of light through a 0.5 ml suspension of stirred (1000 rpm) washed platelets in a lumi-aggregometer at 37° C. […] Platelet aggregation is initiated by the addition of indicated concentrations of ADP or other agonists, and the light transmission is continuously recorded for at least 8 min. When inhibitors of platelet aggregation are tested, platelets are incubated for 2 min in the presence of indicated concentrations of inhibitor before addition of ADP or other agonists, and the response is recorded for at least 8 min. The potency of agonists and inhibitors of platelet aggregation is calculated from both the rate of aggregation and the maximal extent of aggregation obtained for each determination by fitting the data to a four-parameter logistic equation using the GraphPad software package (GraphPad Corp. San Diego, Calif.). […]

IC50 (Platelet)	IC50	Compound
23.5 µM	–	CCNC(=O)Nc1ccn([C@@H]2O[C@H](COCc3ccccc3C(=O)O)C3O[C@H](/C=C/c4ccccc4)O[C@@H]32)c(=O)n1 (stereo partly drawn) [Compound 1, 2′,3′-trans-cinnamylacetal-5′-(2-carboxy)benzyloxy-6-N-ethylurea cytidine]
–	1.3 µM	CCNC(=O)Nc1ccn(C2OC(COCc3c(F)cccc3C(=O)O)C3OC(/C=C/c4ccccc4)OC32)c(=O)n1 (stereo not drawn) [Compound 2, 2′,3′-trans-cinnamylacetal-5′-(2-carboxy-6-fluoro)benzyloxy-6-N-ethylurea cytidine]
